From ChEMBL document CHEMBL4513161, “CO-ADD screening of MMV (CH) - Pandemic Response Box” (2021)
Converted amounts (≈) assume the structure as drawn.

Legend:
Klebsiella pneumoniae = assay: microbe, parasite or virus in culture; settings: ATCC 700603, 18 h, ASSAY_TEST Inhibition of Bacterial Growth, detection method Absorption (OD600), MEDIA CAMHB, plate type 384well, NBS, CORNING #3640
Description: Antibacterial activity against Klebsiella pneumoniae MDR ATCC 70063 (CO-ADD:GN_003); MIC in CAMBH media using NBS plates, by OD(600)

Pseudomonas aeruginosa [1] = assay: Antibacterial activity against Pseudomonas aeruginosa PAO397 [PAO1 d(mexAB-oprM) d(mexCD-oprJ) d(mexEF-oprN) d(mexJKL) d(mexXY) d(opmH)] (CO-ADD:GN_211); MIC in CAMBH media using NBS plates, by OD(600); format: functional; settings: ASSAY_TEST Inhibition of Bacterial Growth, detection method Absorption (OD600), MEDIA CAMHB, plate type 384well, CORNING #3640, time 18 hr
Candida albicans = assay: microbe, parasite or virus in culture; settings: ATCC 90028, ASSAY_TEST Inhibition of Fungal Growth, detection method Absorption (OD530), plate type 384well, NBS, CORNING #3640
Description: Antifungal activity against Candida albicans ATCC 90028 (CO-ADD:FG_001); MIC in YNB media using NBS plates, by OD630

Acinetobacter baumannii = assay: microbe, parasite or virus in culture; settings: ATCC 19606, 18 h, ASSAY_TEST Inhibition of Bacterial Growth, detection method Absorption (OD600), MEDIA CAMHB, plate type 384well, NBS, CORNING #3640
Description: Antibacterial activity against Acinetobacter baumannii ATCC 19606 (CO-ADD:GN_034); MIC in CAMBH media using NBS plates, by OD600

Staphylococcus aureus = assay: microbe, parasite or virus in culture; settings: ATCC 43300, 18 h, ASSAY_TEST Inhibition of Bacterial Growth, detection method Absorption (OD600), MEDIA CAMHB, plate type 384well, NBS, CORNING #3640
Description: Antibacterial activity against Staphylococcus aureus MRSA ATCC 43300 (CO-ADD:GP_020); MIC in CAMBH media, using NBS plates, by OD(600)

Pseudomonas aeruginosa [2] = assay: microbe, parasite or virus in culture; settings: ATCC 27853, 18 h, ASSAY_TEST Inhibition of Bacterial Growth, detection method Absorption (OD600), MEDIA CAMHB, plate type 384well, NBS, CORNING #3640
Description: Antibacterial activity against Pseudomonas aeruginosa ATCC 27853 (CO-ADD:GN_042); MIC in CAMBH media using NBS plates, by OD(600)

HEK293 = assay: cells; format: functional, Homo sapiens, ATCC CRL1573; settings: Homo sapiens, ATCC CRL1573, HEK293; ASSAY_TEST Inhibition of Cell Viability; detection method Resazurin; Fluorescence (ex560/em590); MEDIA DMEM with 10% FBS; plate type 384well; TC; CORNING #3712; time 18 hr; read-out: CC50
Escherichia coli = assay: microbe, parasite or virus in culture; settings: ATCC 25922, 18 h, ASSAY_TEST Inhibition of Bacterial Growth, detection method Absorption (OD600), MEDIA CAMHB, plate type 384well, NBS, CORNING #3640
Description: Antibacterial activity against Escherichia coli ATCC 25922 (CO-ADD:GN_001); MIC in CAMBH media using NBS plates, by OD(600)

Description for Cryptococcus neoformans: Antifungal activity against Cryptococcus neoformans H99 ATCC 208821 (CO-ADD:FG_002); MIC in YNB media using NBS plates, by Resazurin OD(600-570)

Question: What does the source list for CCCCCCCCCN1C[C@@H](O)[C@H](O)[C@@H](O)[C@@H]1CO?
Answer: MIC (Klebsiella pneumoniae): > 20 µM; MIC (Pseudomonas aeruginosa [1]): > 20 µM; MIC (Candida albicans): > 20 µM; MIC (Acinetobacter baumannii): > 20 µM; MIC (Staphylococcus aureus): > 20 µM; MIC (Cryptococcus neoformans): > 20 µM; MIC (Pseudomonas aeruginosa [2]): > 20 µM; CC50 (HEK293): > 20 µM; MIC (Escherichia coli): > 20 µM

Question: What does the source list for CC1(C)CC(NC(=O)C(=O)Nc2ccc(Cl)cc2)CC(C)(C)N1?
Answer: MIC (Klebsiella pneumoniae): > 20 µM; MIC (Pseudomonas aeruginosa [1]): > 20 µM; MIC (Candida albicans): > 20 µM; MIC (Acinetobacter baumannii): > 20 µM; MIC (Staphylococcus aureus): > 20 µM; MIC (Cryptococcus neoformans): > 20 µM; MIC (Pseudomonas aeruginosa [2]): > 20 µM; CC50 (HEK293): > 20 µM; MIC (Escherichia coli): > 20 µM

Question: CN1CCN(c2ccc3[nH]c(-c4ccc5[nH]c(-c6ccc(O)cc6)nc5c4)nc3c2)CC1 [HOECHST 33258] was tested. Which MIC (Klebsiella pneumoniae) did it give?
Answer: > 20 µM

Question: And the MIC (Pseudomonas aeruginosa [1])?
Answer: 20 µM (≈ 8.49 µg/mL)

Question: What about the MIC (Candida albicans) of the same compound?
Answer: 5 µM (≈ 2.12 µg/mL)

Question: And the MIC (Acinetobacter baumannii)?
Answer: > 20 µM

Question: And the MIC (Staphylococcus aureus)?
Answer: > 20 µM

Question: What about the MIC (Cryptococcus neoformans) of the same compound?
Answer: 2.5 µM (≈ 1.06 µg/mL)

Question: What about the MIC (Pseudomonas aeruginosa [2]) of the same compound?
Answer: > 20 µM

Question: And the CC50 (HEK293)?
Answer: > 20 µM

Question: What about the MIC (Escherichia coli) of the same compound?
Answer: > 20 µM

Question: For CCCC(=O)OCCc1ccccc1, which MIC (Klebsiella pneumoniae) is on record?
Answer: > 20 µM

Question: And the MIC (Pseudomonas aeruginosa [1])?
Answer: > 20 µM

Question: And the MIC (Candida albicans)?
Answer: > 20 µM

Question: And the MIC (Acinetobacter baumannii)?
Answer: > 20 µM

Question: And the MIC (Staphylococcus aureus)?
Answer: > 20 µM

Question: What about the MIC (Cryptococcus neoformans) of the same compound?
Answer: > 20 µM

Question: What about the MIC (Pseudomonas aeruginosa [2]) of the same compound?
Answer: > 20 µM

Question: What about the CC50 (HEK293) of the same compound?
Answer: > 20 µM

Question: And the MIC (Escherichia coli)?
Answer: > 20 µM

Question: Which results are given for Cc1cc(NS(=O)(=O)c2ccc(-c3ccc(F)cc3F)cc2)no1?
Answer: MIC (Klebsiella pneumoniae): > 20 µM; MIC (Pseudomonas aeruginosa [1]): > 20 µM; MIC (Candida albicans): > 20 µM; MIC (Acinetobacter baumannii): > 20 µM; MIC (Staphylococcus aureus): > 20 µM; MIC (Cryptococcus neoformans): > 20 µM; MIC (Pseudomonas aeruginosa [2]): > 20 µM; CC50 (HEK293): > 20 µM; MIC (Escherichia coli): > 20 µM

Question: How did the MIC (Klebsiella pneumoniae) turn out when CC(=N)N1CC[C@H](SC2=C(C(=O)O)N3C(=O)[C@@H]([C@@H](C)O)[C@H]3C2)C1 was run?
Answer: > 20 µM

Question: And the MIC (Pseudomonas aeruginosa [1])?
Answer: > 20 µM

Question: What about the MIC (Candida albicans) of the same compound?
Answer: > 20 µM

Question: What about the MIC (Acinetobacter baumannii) of the same compound?
Answer: > 20 µM

Question: And the MIC (Staphylococcus aureus)?
Answer: > 20 µM

Question: And the MIC (Cryptococcus neoformans)?
Answer: > 20 µM

Question: And the MIC (Pseudomonas aeruginosa [2])?
Answer: > 20 µM

Question: And the CC50 (HEK293)?
Answer: > 20 µM

Question: What about the MIC (Escherichia coli) of the same compound?
Answer: > 20 µM

Question: With CC(C)(C)c1cc(C(=O)/C(C#N)=N/Nc2cccc(Cl)c2)no1 as the compound, how does the MIC (Klebsiella pneumoniae) read?
Answer: > 20 µM

Question: What about the MIC (Pseudomonas aeruginosa [1]) of the same compound?
Answer: > 20 µM

Question: And the MIC (Candida albicans)?
Answer: > 20 µM

Question: And the MIC (Acinetobacter baumannii)?
Answer: > 20 µM

Question: What about the MIC (Staphylococcus aureus) of the same compound?
Answer: > 20 µM

Question: What about the MIC (Cryptococcus neoformans) of the same compound?
Answer: > 20 µM

Question: What about the MIC (Pseudomonas aeruginosa [2]) of the same compound?
Answer: > 20 µM

Question: What about the CC50 (HEK293) of the same compound?
Answer: > 20 µM

Question: And the MIC (Escherichia coli)?
Answer: > 20 µM

Question: With Clc1cc2nc(C3CCNCC3)n(Cc3ccc(CNCCc4c[nH]cn4)cc3)c2cc1Cl as the compound, how does the MIC (Klebsiella pneumoniae) read?
Answer: > 20 µM

Question: And the MIC (Pseudomonas aeruginosa [1])?
Answer: > 20 µM

Question: What about the MIC (Candida albicans) of the same compound?
Answer: > 20 µM

Question: And the MIC (Acinetobacter baumannii)?
Answer: > 20 µM

Question: And the MIC (Staphylococcus aureus)?
Answer: > 20 µM

Question: What about the MIC (Cryptococcus neoformans) of the same compound?
Answer: > 20 µM

Question: And the MIC (Pseudomonas aeruginosa [2])?
Answer: > 20 µM

Question: And the CC50 (HEK293)?
Answer: > 20 µM

Question: What about the MIC (Escherichia coli) of the same compound?
Answer: > 20 µM

Question: How did the MIC (Klebsiella pneumoniae) turn out when FC(F)(F)c1cc(C(F)(F)F)c2ccc3nc(-c4nnco4)cn3c2n1 was run?
Answer: > 20 µM

Question: And the MIC (Pseudomonas aeruginosa [1])?
Answer: > 20 µM

Question: And the MIC (Candida albicans)?
Answer: > 20 µM

Question: And the MIC (Acinetobacter baumannii)?
Answer: > 20 µM

Question: And the MIC (Staphylococcus aureus)?
Answer: > 20 µM

Question: And the MIC (Cryptococcus neoformans)?
Answer: > 20 µM

Question: And the MIC (Pseudomonas aeruginosa [2])?
Answer: > 20 µM

Question: What about the CC50 (HEK293) of the same compound?
Answer: > 20 µM

Question: What about the MIC (Escherichia coli) of the same compound?
Answer: > 20 µM

Question: What does the source list for COC(=O)Nc1nc2cc(Sc3ccccc3)ccc2[nH]1 [FENBENDAZOLE]?
Answer: MIC (Klebsiella pneumoniae): > 20 µM; MIC (Pseudomonas aeruginosa [1]): > 20 µM; MIC (Candida albicans): > 20 µM; MIC (Acinetobacter baumannii): > 20 µM; MIC (Staphylococcus aureus): > 20 µM; MIC (Cryptococcus neoformans): 0.312 µM (≈ 0.0935 µg/mL); MIC (Pseudomonas aeruginosa [2]): > 20 µM; CC50 (HEK293): 8.24 µM; MIC (Escherichia coli): > 20 µM

Question: How did the MIC (Klebsiella pneumoniae) turn out when Cn1cc(NC(=O)c2cc(NC(=O)c3ccc(/C=C/c4cnc5ccccc5c4)cc3)cn2C)cc1C(=O)NCCN1CCOCC1 [MGB-BP-3] was run?
Answer: > 20 µM

Question: What about the MIC (Pseudomonas aeruginosa [1]) of the same compound?
Answer: > 20 µM

Question: What about the MIC (Candida albicans) of the same compound?
Answer: > 20 µM

Question: What about the MIC (Acinetobacter baumannii) of the same compound?
Answer: > 20 µM

Question: And the MIC (Staphylococcus aureus)?
Answer: 1.25 µM (≈ 0.79 µg/mL)

Question: And the MIC (Cryptococcus neoformans)?
Answer: > 20 µM

Question: What about the MIC (Pseudomonas aeruginosa [2]) of the same compound?
Answer: > 20 µM

Question: And the CC50 (HEK293)?
Answer: 1.71 µM

Question: What about the MIC (Escherichia coli) of the same compound?
Answer: > 20 µM

Question: With CCCC1(C2CC2)c2cc(Cl)ccc2NC(=O)N1C (stereo unspecified) as the compound, how does the MIC (Klebsiella pneumoniae) read?
Answer: > 20 µM

Question: And the MIC (Pseudomonas aeruginosa [1])?
Answer: > 20 µM

Question: What about the MIC (Candida albicans) of the same compound?
Answer: > 20 µM

Question: What about the MIC (Acinetobacter baumannii) of the same compound?
Answer: > 20 µM

Question: And the MIC (Staphylococcus aureus)?
Answer: > 20 µM

Question: What about the MIC (Cryptococcus neoformans) of the same compound?
Answer: > 20 µM

Question: And the MIC (Pseudomonas aeruginosa [2])?
Answer: > 20 µM

Question: And the CC50 (HEK293)?
Answer: > 20 µM

Question: What about the MIC (Escherichia coli) of the same compound?
Answer: > 20 µM

Question: How did the MIC (Klebsiella pneumoniae) turn out when COc1cccc(N2CCN(C3=Nc4c(F)cccc4[C@H](CC(=O)O)N3c3cc(C(F)(F)F)ccc3OC)CC2)c1 [LETERMOVIR] was run?
Answer: > 20 µM

Question: What about the MIC (Pseudomonas aeruginosa [1]) of the same compound?
Answer: > 20 µM

Question: And the MIC (Candida albicans)?
Answer: > 20 µM

Question: What about the MIC (Acinetobacter baumannii) of the same compound?
Answer: > 20 µM

Question: And the MIC (Staphylococcus aureus)?
Answer: > 20 µM

Question: And the MIC (Cryptococcus neoformans)?
Answer: > 20 µM

Question: And the MIC (Pseudomonas aeruginosa [2])?
Answer: > 20 µM

Question: What about the CC50 (HEK293) of the same compound?
Answer: > 20 µM

Question: What about the MIC (Escherichia coli) of the same compound?
Answer: > 20 µM

Question: Which MIC (Klebsiella pneumoniae) does the source give for c1cc(CN2CCCNCCNCCCNCC2)ccc1CN1CCCNCCNCCCNCC1 [PLERIXAFOR] here?
Answer: > 20 µM

Question: What about the MIC (Pseudomonas aeruginosa [1]) of the same compound?
Answer: > 20 µM

Question: What about the MIC (Candida albicans) of the same compound?
Answer: > 20 µM

Question: And the MIC (Acinetobacter baumannii)?
Answer: > 20 µM

Question: And the MIC (Staphylococcus aureus)?
Answer: > 20 µM

Question: What about the MIC (Cryptococcus neoformans) of the same compound?
Answer: > 20 µM

Question: What about the MIC (Pseudomonas aeruginosa [2]) of the same compound?
Answer: > 20 µM

Question: And the CC50 (HEK293)?
Answer: > 20 µM

Question: And the MIC (Escherichia coli)?
Answer: > 20 µM
